The target in one series is T1, ASIC1a (Homo sapiens, UniProt P78348).
T1 construct: expressed in transfected cells; host or cells: Xenopus laevis oocytes injected with capped cRNA
T1 sequence (P78348 1-528): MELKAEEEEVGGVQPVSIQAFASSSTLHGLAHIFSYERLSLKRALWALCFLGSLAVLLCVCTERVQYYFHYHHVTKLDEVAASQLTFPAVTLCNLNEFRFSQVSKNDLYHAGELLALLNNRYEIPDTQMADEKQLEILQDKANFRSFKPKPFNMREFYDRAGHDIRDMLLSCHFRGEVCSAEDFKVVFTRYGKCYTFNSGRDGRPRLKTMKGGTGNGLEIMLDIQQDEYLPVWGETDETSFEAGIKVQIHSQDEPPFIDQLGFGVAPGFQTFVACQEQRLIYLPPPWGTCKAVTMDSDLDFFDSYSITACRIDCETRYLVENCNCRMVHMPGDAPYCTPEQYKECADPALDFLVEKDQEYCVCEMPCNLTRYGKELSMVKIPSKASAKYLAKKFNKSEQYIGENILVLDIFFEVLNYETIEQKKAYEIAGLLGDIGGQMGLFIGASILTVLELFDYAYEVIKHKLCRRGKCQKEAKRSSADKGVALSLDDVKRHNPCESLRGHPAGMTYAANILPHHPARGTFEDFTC
In words: Inhibition of ASIC1a current in ASIC1a-expressing Xenopus laevis oocytes, two-electrode voltage clamp method. Type of series: cell-based. The conditions noted are these: current induced by shifting pH from 7.5 to 6.0; four to five oocytes. The protocol:
(1) Preparation of the ASIC1a-expressing Xenopus laevis oocytes
Using the RNeasy Protect Mini Kit (QIAGEN), total RNA was prepared from HEK293 cells. Subsequently, using the High Fidelity RNA PCR kit (TAKARA BIO INC.), first strand cDNA was synthesized, and using this first strand cDNA as a template, PCR was performed. The sense-strand primer for PCR was: […] (SEQ ID NO: 1) and the antisense-strand primer for PCR was: […] (SEQ ID NO: 2), and the PCR conditions were such that one cycle consisting of 95° C. for 30 seconds, 55° C. for 30 seconds, and 72° C. for 90 seconds was repeated 30 cycles. The PCR product was inserted into the PCR2.1 vector, and the resulting vector was further subcloned into the pcDNA3.1 (−) vector. From the ASIC1a plasmid which was linearized by the BamHI enzyme, capped cRNA was synthesized using the mMessage mMachine Kits (Ambion).

Series [1] is described as follows: Cytotoxic test, alamar blue assay. The settings on record: human, undifferentiated SH-SY5Y neuroblastoma cells, 24 hours exposure, concentration at which respiratory activity decreased to 50%, read-out: IC50 Cytotoxicity. The format is cell-based. The protocol:
Using SH-SY5Y, a cytotoxic test was performed. In this test also, memantine and amiloride were used as control compounds.
The SH-SY5Y neuroblastoma cell line was purchased from American Type Culture Collection. The cells were cultured in the medium containing penicillin (100 U/mL), streptomycin (100 U/mL), and inactivated fetal bovine serum (Gibco). The cells were maintained in a CO2 incubator at 37° C. under the conditions of 95% air and 5% CO2.
Undifferentiated SH-SY5Y cells were exposed to various concentrations of Compounds 1, 2, and 3 for 24 hours. The alamar blue stock solution was transferred to a 96-well plate so that the final assay volume was 100 μL/well with a final alamar blue concentration of 10%. Six hours later, reduced alamar blue was measured at a wavelength of 570 nm. As to the survival rate (%), assuming that the mitochondrial respiratory activity in the drug-free cells as 100%, the respiratory activity of the cells exposed to Compounds 1, 2, and 3 for 24 hours was expressed as relative values.
A general note: Resazurin is reduced to fluorescent resorufin, in cell work by metabolically active cells.

For a further series, the target named is NR1/NR2A (Rattus norvegicus, UniProt P35439+Q00959). In words: Inhibition of NMDA receptor NR1/NR2A activity in Xenopus laevis oocytes, two-electrode voltage clamp method.
Chain of NR1/NR2A (Q00959 23-1464, other chains not shown): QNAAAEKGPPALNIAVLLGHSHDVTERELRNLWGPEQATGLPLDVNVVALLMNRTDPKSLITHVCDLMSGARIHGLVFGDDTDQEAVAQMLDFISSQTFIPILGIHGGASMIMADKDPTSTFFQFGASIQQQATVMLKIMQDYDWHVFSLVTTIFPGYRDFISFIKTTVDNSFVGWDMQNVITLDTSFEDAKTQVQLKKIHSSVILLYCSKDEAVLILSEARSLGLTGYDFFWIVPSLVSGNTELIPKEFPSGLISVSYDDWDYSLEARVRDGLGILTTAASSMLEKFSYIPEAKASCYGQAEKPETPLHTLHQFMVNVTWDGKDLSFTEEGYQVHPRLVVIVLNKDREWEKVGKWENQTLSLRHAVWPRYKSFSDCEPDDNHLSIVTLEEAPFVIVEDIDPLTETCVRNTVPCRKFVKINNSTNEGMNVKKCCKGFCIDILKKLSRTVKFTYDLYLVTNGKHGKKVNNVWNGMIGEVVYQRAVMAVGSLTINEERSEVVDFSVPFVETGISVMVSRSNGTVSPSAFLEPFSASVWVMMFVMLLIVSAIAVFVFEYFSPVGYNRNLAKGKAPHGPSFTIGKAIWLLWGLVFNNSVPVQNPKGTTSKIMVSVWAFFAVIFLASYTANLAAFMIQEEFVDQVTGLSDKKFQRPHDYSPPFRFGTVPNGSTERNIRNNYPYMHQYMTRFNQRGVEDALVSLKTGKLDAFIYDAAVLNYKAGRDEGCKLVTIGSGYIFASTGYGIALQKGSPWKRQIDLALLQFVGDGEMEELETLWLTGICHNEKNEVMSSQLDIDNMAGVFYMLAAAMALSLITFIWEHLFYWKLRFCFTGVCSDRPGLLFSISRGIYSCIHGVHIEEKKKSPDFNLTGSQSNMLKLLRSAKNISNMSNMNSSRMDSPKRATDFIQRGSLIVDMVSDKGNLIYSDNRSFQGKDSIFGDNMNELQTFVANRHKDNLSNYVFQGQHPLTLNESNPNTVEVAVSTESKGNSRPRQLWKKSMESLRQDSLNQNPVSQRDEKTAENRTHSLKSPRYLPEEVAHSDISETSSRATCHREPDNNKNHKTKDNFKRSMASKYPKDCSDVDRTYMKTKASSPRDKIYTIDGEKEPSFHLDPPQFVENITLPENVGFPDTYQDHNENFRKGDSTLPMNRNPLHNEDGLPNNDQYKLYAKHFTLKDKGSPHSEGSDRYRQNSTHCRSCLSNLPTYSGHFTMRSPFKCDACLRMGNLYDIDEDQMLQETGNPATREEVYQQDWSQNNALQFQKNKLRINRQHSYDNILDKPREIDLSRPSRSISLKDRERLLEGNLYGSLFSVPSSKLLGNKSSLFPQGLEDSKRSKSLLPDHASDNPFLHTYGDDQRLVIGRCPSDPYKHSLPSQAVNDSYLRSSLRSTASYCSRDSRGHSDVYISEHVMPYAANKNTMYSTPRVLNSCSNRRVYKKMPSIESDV

Description for NR1/NR2A: The effect of the compound of the present invention on NMDA receptors was measured by the two-electrode voltage clamp method.
(1) Preparation of the NMDA receptor-expressing Xenopus laevis oocytes
Into the oocytes, cRNA of the NR1 subunit and cRNA of the NR2 subunit of the NMDA receptor were injected at a ratio of 1:5 (0.1 to 4 ng of NR1 and 0.5 to 20 ng of NR2), whereby the oocytes expressing NMDA receptors were obtained.
(2) The oocytes thus obtained were cultured in the medium (96 mM NaCl, 2 mM KCl, 1 mM MgCl2, 1.8 mM CaCl2, 5 mM Na-HEPES, 2.5 mM sodium pyruvate, 50 mg/mL gentamicin, pH=7.5) at 19° C. for 1 to 3 days.
On the day of measurement, after injecting K^+-BAPTA into the oocytes, the activity of the receptor was measured by the two-electrode voltage clamp method to be described later using a recording buffer (96 mM NaCl, 2 mM KCl, 1.8 mM BaCl2, 10 mM Na-HEPES, pH=7.5).
Among them, because NR1/NR2A is considered to be most prevalently expressed in the brain, the inhibitory effect on the activity of NR1/NR2A was measured in the following tests.
(3) Two-electrode voltage clamp method
Using the two-electrode voltage clamp amplifier CEZ-1250 (NIHON KOHDEN CORPORATION), the electric current which has passed through the entire oocyte membrane was measured. Electrodes were filled with 3M potassium chloride and the resistance was set at 0.4 to 4 MΩ. Also, for measurement, glutamic acid and glycine were added as the NMDA receptor agonists.
(4) To the oocytes obtained by the aforementioned method, various concentrations of compounds were added. Setting the voltage clamp at Vh=−70 mV (resting membrane potential), the inhibitory effect on the activity of NR1/NR2A was measured.
The values obtained from four to five oocytes were averaged out and the resulting value ±S.E.M. was obtained as the measurement value.

What is called IC50 is the concentration needed to halve the response being measured. `CC12CC3CC(C)(C1)CC(N)(C3)C2` [Memantine, reference compound]: on ASIC1a, the “IC50 ASIC1a” value is “no effect”. In addition, in series [1], the IC50 at 24 h stood at 146 µM.

Turning to `N=C(N)NC(=O)c1nc(Cl)c(N)nc1N` [Amiloride, reference compound], in series [1], the IC50 at 24 h turned out to be 563 µM. This compound also gave an IC50 against NR1/NR2A of 117 µM.

As to `N=C(NCCc1ccccc1)NC(=N)NNC(=O)c1nc(Cl)c(N)nc1N` [Compound 1], the IC50 at ASIC1a is 4.7 µM; against NR1/NR2A, 3.5 µM. In series [1], the IC50 at 24 h was found to be 2680 µM.

For `N=C(NCCc1ccc(Cl)cc1)NC(=N)NNC(=O)c1nc(Cl)c(N)nc1N` [Compound 2, 1-(3,5-diamino-6-chloropyrazinamide)-5-[2-(4-chlorophenyl)ethyl]biguanide], the IC50 at ASIC1a worked out at 0.49 µM; at NR1/NR2A it was 0.23 µM. In addition, the concentration for half-maximal inhibition (IC50) at 24 h in series [1] was 978 µM.

For the compound `N=C(NCCc1ccc(Cl)c(Cl)c1)NC(=N)NNC(=O)c1nc(Cl)c(N)nc1N` [Compound 3], the IC50 amounted to 0.21 µM on ASIC1a and 0.3 µM at NR1/NR2A. In series [1], the IC50 at 24 h is 277 µM.
